Laboratory results published in PMC12754617, “Ruthenium-enhanced curcumin derivatives target tumor growth and cancer-related inflammation in head and neck cancer models” (Frontiers in Oncology, 2025).

Assays:
[1] = test system: NF-κB in THP1-Blue NF-κB cells; experiment: NF-κB activity assay (SEAP reporter, LPS-induced); assay type: cell-based; settings: LPS 10 ng/mL
Procedure: THP1-Blue NF-κB cells, NF-κB secreted embryonic alkaline phosphatase (SEAP) reporter monocytes (InvivoGen, USA), were assayed after 20–24 h of incubation following the manufacturer’s protocol. Briefly, cells were seeded at 1 × 10^6 cells/mL in RPMI medium in 96-well plates (180 μL) and treated with complex 3 or 4, Lipopolysaccharide (LPS) (10 ng/mL; […] The next day, NF-κB activation was assessed via the secretion of SEAP. Supernatants (20 μL) were transferred to 96-well plates, and 180 μL of Quanti-Blue was added. Plates were incubated for 2 h at 37°C, and absorbance was measured at 600 nm using an […] 200 PRO microplate reader (TECAN, Switzerland).

[2] = test system: FaDu; experiment: Wound healing assay; assay type: cell-based, human; settings: IC25 concentration, area closed
Procedure: (§1) The wound healing activity of complexes 3 and 4 was evaluated using the ibidi Culture-Insert 2 Well in a μ-dish. Cells were plated by applying 70 μL of cell suspension at a density of 50,000 cells into both wells of the Culture-Insert 2 Well and grown over the weekend. Once confluency was achieved, sterile tweezers were used to detach the Culture-Insert 2 Well from the μ-dish. The cell layer was then gently washed with PBS. Subsequently, the cell layer was treated with medium containing complex 3 or 4 at the IC25 concentration, and wound closure was observed and photographed using an inverted light microscope (0–55 h of incubation). Experiments were performed in four independent replicates.
(§2) An in vitro wound healing assay was performed to determine the effect of complex 3 or 4 on cell migration. The area of the wound bordered by a monolayer of cells was measured using ImageJ software. Wound closure was monitored from 0 to 55 h. […] Microscope images after 24 h for all cell lines, as well as 55 h, can be seen in Supplementary Figure S7. […] The stained wound healing area after 55 h is shown in Supplementary Figure S10.

[3] = test system: SCC-9; experiment: Wound healing assay; assay type: cell-based, human; settings: IC25 concentration, area closed
Procedure: as §1, §2

[4] = test system: CAL 27; experiment: Wound healing assay; assay type: cell-based, human; settings: IC25 concentration, area closed
Procedure: as §1, §2

[5] = test system: HGF; experiment: Wound healing assay; assay type: cell-based, human; settings: IC25 concentration, area closed
Procedure: as §1, §2

[6] = test system: Detroit 562; experiment: Wound healing assay; assay type: cell-based, human; settings: IC25 concentration, area closed
Procedure: as §1, §2

[7] = test system: KB; experiment: Wound healing assay; assay type: cell-based, human; settings: IC25 concentration, area closed
Procedure: as §1, §2

[8] = test system: Hep-2; experiment: Wound healing assay; assay type: cell-based, human; settings: IC25 concentration, area closed
Procedure: as §1, §2

[9] = test system: TR146; experiment: Wound healing assay; assay type: cell-based, human; settings: IC25 concentration, area closed
Procedure: as §1, §2

[10] = UV–Vis spectroscopy in PBS (solubility); assay type: physicochemical; settings: PBS (PBS:DMSO 99:1), UV–Vis linearity of absorbance
Procedure: All chemicals were sourced from commercial suppliers and utilized directly without any additional purification steps. Nuclear Magnetic Resonance (NMR) spectra were acquired on a 400-MHz spectrometer (JEOL, Tokyo, Japan) at 25°C. The chemical shifts (δ) are given in parts per million (ppm), with coupling constants (J) measured in hertz (Hz). The ^1H and ^13C NMR shifts are referenced to TMS, and solvent signals from Dimethyl Sulfoxide (DMSO)-d6 (2.50 ppm for ^1H and 39.52 ppm for ^13C) were used as references. Data analysis was performed using MestReNova software (version 14.2.1, Mestrelab Research S.L., Santiago de Compostela, SPAIN). Full assignment was performed using a combination of ^1H, ^13C, correlation spectroscopy (COSY), heteronuclear single quantum coherence (HSQC), and heteronuclear multiple bond correlation (HMBC) experiments. Mass spectrometry was conducted in positive ion mode using electrospray ionization (ESI^+) with a high-resolution hybrid Ion Trap-Orbitrap mass spectrometer (LTQ Orbitrap Velos, Thermo Scientific, Waltham, Massachusetts, USA), Supplementary Figures S21, S22. Detailed NMR spectra for all synthesized products are available in Supplementary Figures S12-S20. […] Characteristic absorption maxima were identified, and their dependence on concentration was evaluated.

Row | SMILES | Wound area (%) ([2]; 24 h) | Wound area (%) ([2]; 48 h) | Wound area (%) ([2]; 55 h) | Wound area (%) ([3]; SCC-9, 24 h) | Wound area (%) ([3]; SCC-9, 48 h) | Wound area (%) ([3]; SCC-9, 55 h) | Wound area (%) ([4]; CAL 27, 24 h) | Wound area (%) ([4]; CAL 27, 48 h) | Wound area (%) ([4]; CAL 27, 55 h) | Wound area (%) ([5]; 24 h) | Wound area (%) ([5]; 48 h) | Wound area (%) ([5]; 55 h) | Wound area (%) ([6]; Detroit 562, 24 h) | Wound area (%) ([6]; Detroit 562, 48 h) | Wound area (%) ([6]; Detroit 562, 55 h) | Wound area (%) ([7]; 24 h) | Wound area (%) ([7]; 48 h) | Wound area (%) ([7]; 55 h) | Wound area (%) ([8]; Hep-2, 24 h) | Wound area (%) ([8]; Hep-2, 48 h) | also measured
1 | Cc1ccc(C(C)C)cc1.Cc1ccc(C(C)C)cc1.O=C1C(=Cc2ccnc3ccccc23)COCC1=Cc1ccnc2ccccc12.[Cl][Ru][Cl].[Cl][Ru][Cl] [Complex 3] | 7 ± 1 | 9 ± 1 | less than 20% | 5 ± 2 | 6 ± 2 | less than 10% | 10 ± 2 | 15 ± 3 | less than 20% | 8 ± 3 | 13 ± 5 | 71 ± 2 | 8 ± 2 | 9 ± 3 | less than 20% | 7 ± 1 | 13 ± 1 | less than 20% | 3 ± 1 | 5 ± 1 | Reduction of LPS-induced NF-κB activation ([1]; 8 μM): approximately 80%; Wound area (%) ([2]; 55 h, listed as C3): 12 ± 1%; Wound area (%) ([3]; SCC-9, 55 h, listed as C3): 7 ± 2%; Wound area (%) ([4]; CAL 27, 55 h, listed as C3): 16 ± 3%; Wound area (%) ([6]; Detroit 562, 55 h, listed as C3): 10 ± 2%; Wound area (%) ([7]; 55 h, listed as C3): 17 ± 2%; Wound area (%) ([8]; Hep-2, 55 h): less than 10%; Wound area (%) ([8]; Hep-2, 55 h, listed as C3): 7 ± 1%; Wound area (%) ([9]; TR146, 24 h): 3 ± 1%; Wound area (%) ([9]; TR146, 48 h): 4 ± 1%; Wound area (%) ([9]; TR146, 55 h): less than 10%; Wound area (%) ([9]; TR146, 55 h, listed as C3): 5 ± 1%; Solubility in the buffered environment [10]: sufficient solubility
2 | Cc1ccc(C(C)C)cc1.Cc1ccc(C(C)C)cc1.O=C1C(=Cc2cccnc2)CCC1=Cc1cccnc1.[Cl][Ru][Cl].[Cl][Ru][Cl] [Complex 4] | 24 ± 6 | 43 ± 10 | 61 ± 6% | 17 ± 12 | 37 ± 8 | 55 ± 13% | 7 ± 4 | 11 ± 3 | less than 15% | 13 ± 3 | 47 ± 11 | 91 ± 1 | 13 ± 7 | 38 ± 11 | 76 ± 2% | 16 ± 4 | 33 ± 4 | less than 50% | 9 ± 2 | 23 ± 3 | Reduction of LPS-induced NF-κB activation ([1]; 15 μM): about 70%; Wound area (%) ([4]; CAL 27, 55 h, listed as C4): 12 ± 3%; Wound area (%) ([7]; 55 h, listed as C4): 44 ± 2%; Wound area (%) ([8]; Hep-2, 55 h): less than 50%; Wound area (%) ([8]; Hep-2, 55 h, listed as C4): 47 ± 2%; Wound area (%) ([9]; TR146, 24 h): 3 ± 1%; Wound area (%) ([9]; TR146, 48 h): 5 ± 1%; Wound area (%) ([9]; TR146, 55 h): less than 15%; Wound area (%) ([9]; TR146, 55 h, listed as C4): 7 ± 1%; Solubility in the buffered environment [10]: sufficient solubility
